Where two headings read alike, the source gives them in different places.
Key:
[1] = molecular target: T1, SHV-5 (Klebsiella pneumoniae, UniProt P0A3M1); assay: β-lactamase enzyme inhibition, SHV-5; format: biochemical
T1 construct: made in house; host or cells: E. coli BL21(DE3)
Method in brief: (§1)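 Native untagged β-lactamases expressed in E. coli BL21(DE3) and purified, then pre-incubated with inhibitor 15 min at 37 °C. Hydrolysis was followed by absorbance: 100 μM nitrocefin at 486 nm for p99 AmpC and OXA-1; imipenem at 300 nm for KPC-2; cefotaxime at 260 nm for SHV-5. IC50 from initial-rate inhibition versus uninhibited controls.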

[2] = molecular target: T2, KPC-2 (Klebsiella pneumoniae, UniProt Q9F663); assay: β-lactamase enzyme inhibition, KPC-2; format: biochemical; conditions: substrate imipenem, 300 nm; read-out: Class A KPC-2 IC50
T2 construct: made in house; host or cells: E. coli BL21(DE3)
Method in brief: as §1

[3] = molecular target: T3, VIM-2 (Escherichia coli, UniProt Q5U7L7); assay: β-lactamase enzyme inhibition, VIM-2; format: biochemical; conditions: substrate Nitrocefin 100 μM, 486 nm; read-out: Class B VIM-2 IC50
T3 construct: made in house; host or cells: E. coli BL21(DE3)
Method in brief: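 Purified VIM-2 (Q sepharose, 50 mM Hepes pH 7.5, >90% purity) preincubated with inhibitor 15 min at 37° C, then nitrocefin added at 100 μM final. Hydrolysis followed at 486 nm for 10 min; IC50 from initial rates versus inhibitor-free control wells.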

[4] = molecular target: T4, p99 AmpC (Enterobacter cloacae, UniProt P05364); assay: β-lactamase enzyme inhibition, p99 AmpC; format: biochemical
T4 construct: made in house; host or cells: E. coli BL21(DE3)
Method in brief: as §1

[5] = molecular target: T5, OXA-1 (Escherichia coli, UniProt P13661); assay: β-lactamase enzyme inhibition, OXA-1; format: biochemical; conditions: substrate Nitrocefin 100 μM, 486 nm; read-out: Class D OXA-1 IC50
T5 construct: made in house; host or cells: E. coli BL21(DE3)
Method in brief: as §1

[6] = tested on: E. coli ESBL4 CTX-M-15; assay: broth microdilution MIC, E. coli CTX-M-15; format: cell-based; conditions: Fixed CAZ 4 μg/mL
From the text: (§2) To determine the ability of test compounds to potentiate the inhibition of the growth of bacterial strains that produce beta-lactamase enzymes, classic cell based broth microdilution MIC assays were employed. Six bacteria strains producing beta-lactamase enzymes were used: E. coli expressing the Class A Extended Spectrum Beta-Lactamase (ESBL) CTX-M-15, E. cloacae expressing the Class C P99, K. pneumoniae expressing the Class A carbapenemase KPC-3, P. aeruginosa expressing the Class B carbapenemase VIM-2, K. pneumoniae expressing the class A carbapenemase KPC-2 and the class B carbapenemase VIM-4, and S. aureus producing the Class A penicillinase PC-1. The assay was conducted in Cation Adjusted Mueller Hinton Broth (CAMHB, BD #212322, BD Diagnostic Systems, Sparks, Md.). Bacteria strains were grown for 3-5 hours in CAMBH broth. Test compounds were added to a microtiter plate in 2-fold serial dilutions in CAMHB in a final concentration range of 32 μg/mL to 0.25 μg/ml. An overlay of CAMHB containing a Beta-lactam was added to the compounds at a final static concentration of 4 μg/ml. […] In addition to the titration of test compounds the MICs of a panel of control beta-lactams is also tested to ensure the strains are behaving consistently from test to test. Once the test compound and antibiotics are added the plates can be inoculated according to CLSI broth microdilution method. After inoculation the plates are incubated for 16-20 hours at 37° C. then the Minimal Inhibitory Concentration (MIC) of the test compound is determined visually.
(§3) Using the methodology described above in EXAMPLE III, exemplary compounds for Formula I or Formula Ia were evaluated for their ability to inhibit the growth of β-lactamase producing bacteria in the presence of a β-lactam antibiotic. […]

[7] = tested on: E. cl. 144200 p99 AmpC; assay: broth microdilution MIC, E. cloacae P99; format: cell-based; conditions: Fixed CAZ 4 μg/mL
From the text: as §2, §3

[8] = tested on: K.P. 156319 KPC-3; assay: broth microdilution MIC, K. pneumoniae KPC-3; format: cell-based; conditions: Fixed Mero 4 μg/mL
From the text: as §2, §3

[9] = tested on: P. aerug. Ps296 VIM-2; assay: broth microdilution MIC, P. aeruginosa VIM-2; format: cell-based; conditions: for MIC of exemplary compounds in presence of fixed β-lactams, P. aerug. Ps296 VIM-2: Fixed Mero 4 μg/mL
From the text: as §2
Using the methodology described above in EXAMPLE III, exemplary compounds for Formula I or Formula Ia were evaluated for their ability to inhibit the growth of β-lactamase producing bacteria in the presence of a β-lactam antibiotic.
Representative results are shown in Table 4 where A represents an MIC of the fixed β-lactam antibiotic in the presence of >32 μg/mL of a β-lactamase inhibitor of exemplary compounds, B represents the MIC in the presence of between 8 and 32 μg/mL of a β-lactamase inhibitor of exemplary compounds, and C represents the MIC in the presence of ≦4 μg/mL of a β-lactamase inhibitor of exemplary compounds. NT=Not Tested.

[10] = tested on: K.P. A-1797 KPC-2 VIM-4; assay: broth microdilution MIC, K. pneumoniae KPC-2 and VIM-4; format: cell-based; conditions: Fixed Mero 4 μg/mL
From the text: as §2, §3

[11] = substrate Cefotaxime, 260 nm, read-out: Class A SHV-5 IC50
[12] = substrate Nitrocefin 100 μM, 486 nm, read-out: Class C AmpC IC50

Row | Compound | IC50 [1, 11] | IC50 [2] | IC50 [3] | IC50 [4, 12] | IC50 [5] | MIC of exemplary compounds in presence of fixed β-lactams, E. coli ESBL4 CTX-M-15 [6] | MIC of exemplary compounds in presence of fixed β-lactams, E. cl. 144200 p99 AmpC [7] | MIC of exemplary compounds in presence of fixed β-lactams, K.P. 156319 KPC-3 [8] | MIC of exemplary compounds in presence of fixed β-lactams, P. aerug. Ps296 VIM-2 [9] | MIC of exemplary compounds in presence of fixed β-lactams, K.P. A-1797 KPC-2 VIM-4 [10] | MIC ([9]; Pseudomonas aeruginosa, partner antibiotic alone, P. aeruginosa expressing VIM-2) | IC50 [1] | IC50 [4]
1 | (3R)-3-[[2-[(1S,3S,4S)-3,4-bis(aminomethyl)cyclohexyl]acetyl]amino]-2-hydroxy-3,4-dihydro-1,2-benzoxaborinine-8-carboxylic acid and (3R)-3-[[2-[(1R,3R,4R)-3,4-bis(aminomethyl)cyclohexyl]acetyl]amino]-2-hydroxy-3,4-dihydro-1,2-benzoxaborinine-8-carboxylic acid [Example 18] | < 100 nM | < 100 nM | < 100 nM | < 100 nM | < 100 nM | C (C represents the MIC in the presence of ≦4 μg/mL of a β-lactamase inhibitor of exemplary compounds) | C (C represents the MIC in the presence of ≦4 μg/mL of a β-lactamase inhibitor of exemplary compounds) | C (C represents the MIC in the presence of ≦4 μg/mL of a β-lactamase inhibitor of exemplary compounds) | C (C represents the MIC in the presence of ≦4 μg/mL of a β-lactamase inhibitor of exemplary compounds) | B (B represents the MIC in the presence of between 8 and 32 μg/mL of a β-lactamase inhibitor of exemplary compounds) |  |  | 
2 | C[C@@H](O)[C@H]1C(=O)N2C(C(=O)O)=C(S[C@@H]3CN[C@H](C(=O)N(C)C)C3)[C@H](C)[C@H]12 [Meropenem, reference compound] |  |  |  |  |  |  |  |  |  |  | 16 µg/mL |  | 
3 | (3R)-3-[[(3S,4S)-3,4-diaminocyclopentanecarbonyl]amino]-2-hydroxy-3,4-dihydro-1,2-benzoxaborinine-8-carboxylic acid and (3R)-3-[[(3R,4R)-3,4-diaminocyclopentanecarbonyl]amino]-2-hydroxy-3,4-dihydro-1,2-benzoxaborinine-8-carboxylic acid [Example 19] | 100 to 1000 nM | < 100 nM | < 100 nM | < 100 nM | < 100 nM | C (C represents the MIC in the presence of ≦4 μg/mL of a β-lactamase inhibitor of exemplary compounds) | C (C represents the MIC in the presence of ≦4 μg/mL of a β-lactamase inhibitor of exemplary compounds) | C (C represents the MIC in the presence of ≦4 μg/mL of a β-lactamase inhibitor of exemplary compounds) | C (C represents the MIC in the presence of ≦4 μg/mL of a β-lactamase inhibitor of exemplary compounds) | C (C represents the MIC in the presence of ≦4 μg/mL of a β-lactamase inhibitor of exemplary compounds) |  |  | 
4 | CCNCCN[C@H]1CC[C@H](CC(=O)N[C@H]2Cc3cccc(C(=O)O)c3OB2O)CC1 [Example 78, (R)-3-(2-(trans-4-(2-(ethylamino)ethylamino)cyclohexyl)acetamido)-2-hydroxy-3,4-dihydro-2H-benzo[e][1,2]oxaborinine-8-carboxylic acid] |  | < 100 nM | < 100 nM |  | < 100 nM |  |  |  |  |  |  | < 100 nM | < 100 nM
5 | O=C(C[C@H]1CC[C@H](NCC2CCNCC2)CC1)N[C@H]1Cc2cccc(C(=O)O)c2OB1O [Example 33, (R)-2-hydroxy-3-(2-(trans-4-(piperidin-4-ylmethylamino)cyclohexyl)acetamido)-3,4-dihydro-2H-benzo[e][1,2]oxaborinine-8-carboxylic acid] |  | < 100 nM | 100 to 1000 nM |  | < 100 nM |  |  |  |  |  |  | < 100 nM | < 100 nM
6 | N[C@H]1CC[C@H](C(=O)N[C@H]2Cc3cccc(C(=O)O)c3OB2O)CC1 [Example 2, (R)-3-(trans-4-aminocyclohexanecarboxamido)-2-hydroxy-3,4-dihydro-2H-benzo[e][1,2]oxaborinine-8-carboxylic acid] |  | 100 to 1000 nM | 100 to 1000 nM |  | 100 to 1000 nM |  |  |  |  |  |  | 10000 to 100000 nM | < 100 nM
7 | N=CN[C@H]1CC[C@H](CC(=O)N[C@H]2Cc3cccc(C(=O)O)c3OB2O)CC1 [Example 30, (R)-3-(2-(trans-4-formimidamidocyclohexyl)acetamido)-2-hydroxy-3,4-dihydro-2H-benzo[e][1,2]oxaborinine-8-carboxylic acid] |  | < 100 nM | 100 to 1000 nM |  | 100 to 1000 nM |  |  |  |  |  |  | < 100 nM | < 100 nM
8 | NCCNC[C@H]1CC[C@H](CC(=O)N[C@H]2Cc3cccc(C(=O)O)c3OB2O)CC1 [Example 10, (R)-3-(2-(trans-4-((2-aminoethylamino)methyl)cyclohexyl)acetamido)-2-hydroxy-3,4-dihydro-2H-benzo[e][1,2]oxaborinine-8-carboxylic acid] |  | < 100 nM | 100 to 1000 nM |  | 100 to 1000 nM |  |  |  |  |  |  | < 100 nM | < 100 nM
9 | N[C@@H](CO)CN[C@H]1CC[C@H](CC(=O)N[C@H]2Cc3cccc(C(=O)O)c3OB2O)CC1 [Example 65, (R)-3-(2-(trans-4-((R)-2-amino-3-hydroxypropylamino)cyclohexyl)acetamido)-2-hydroxy-3,4-dihydro-2H-benzo[e][1,2]oxaborinine-8-carboxylic acid] |  | < 100 nM | < 100 nM |  | < 100 nM |  |  |  |  |  |  | < 100 nM | < 100 nM
10 | O=C(C[C@H]1CC[C@H](N2CCNCC2)CC1)N[C@H]1Cc2cccc(C(=O)O)c2OB1O [Example 16, (R)-2-hydroxy-3-(2-(trans-4-(piperazin-1-yl)cyclohexyl)acetamido)-3,4-dihydro-2H-benzo[e][1,2]oxaborinine-8-carboxylic acid] |  | < 100 nM | 1000 to 10000 nM |  | < 100 nM |  |  |  |  |  |  | < 100 nM | < 100 nM
11 | O=C(C[C@H]1CC[C@H](NCCNc2ncccn2)CC1)N[C@H]1Cc2cccc(C(=O)O)c2OB1O [Example 72] |  | < 100 nM | 100 to 1000 nM |  | < 100 nM |  |  |  |  |  |  | < 100 nM | < 100 nM
12 | NCC1CCC(CC(=O)N[C@H]2Cc3cccc(C(=O)O)c3OB2O)(C[N+](=O)[O-])CC1 (stereo partly drawn) [Example 12, (R)-3-(2-(4-(aminomethyl)-1-(nitromethyl)cyclohexyl)acetamido)-2-hydroxy-3,4-dihydro-2H-benzo[e][1,2]oxaborinine-8-carboxylic acid] |  | 100 to 1000 nM | 1000 to 10000 nM |  | 100 to 1000 nM |  |  |  |  |  |  | 100 to 1000 nM | < 100 nM
13 | NCC1CCC(=CC(=O)N[C@H]2Cc3cccc(C(=O)O)c3OB2O)CC1 (stereo partly drawn) [Example 11, (3R)-3-(2-(4-(aminomethyl)cyclohexylidene)acetamido)-2-hydroxy-3,4-dihydro-2H-benzo[e][1,2]oxaborinine-8-carboxylic acid] |  | 1000 to 10000 nM | 1000 to 10000 nM |  | 100 to 1000 nM |  |  |  |  |  |  | 100 to 1000 nM | < 100 nM
14 | CN(CCN)[C@H]1CC[C@H](CC(=O)N[C@H]2Cc3cccc(C(=O)O)c3OB2O)CC1 [Example 63, (R)-3-(2-(trans-4-((2-aminoethyl)(methyl)amino)cyclohexyl)acetamido)-2-hydroxy-3,4-dihydro-2H-benzo[e][1,2]oxaborinine-8-carboxylic acid] |  | < 100 nM | < 100 nM |  | < 100 nM |  |  |  |  |  |  | < 100 nM | < 100 nM

Source: US8912169B2, “Beta-lactamase inhibitors” (VenatoRx Pharmaceuticals, Inc., priority 2012, dated 2014)
